Test results from the METLIN SMRT retention time set (Domingo-Almenara et al. 2019).

Assay: gradient 5% acetonitrile 3 min, to 50% in 2 min, to 85% in 15 min, held 3 min, 100 µL/min
Details: column: Zorbax Extend-C18 2.1 x 50 mm; eluents: water / acetonitrile, 0.1% formic acid
Outline: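 Data were gathered over 3 months by HPLC coupled to a quadrupole time-of-flight mass spectrometer, operated in positive and negative ionization mode. Mixtures of ~100 pure standards ran on a Zorbax Extend-C18 column (2.1 × 50 mm, 1.8 μm) at 100 μL/min, with water and acetonitrile each containing 0.1% formic acid and dead and dwell volumes of 40 μL and 900 μL. Retention time was read from adduct peaks picked by computer and checked manually.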

Compound	RP-LC retention time [s]
CN(CC1CCOC1)C(=O)Cc1cccc(Cl)c1 (stereo not drawn)	734
CCOc1ccc(OCC)c(NC(=O)Cc2csc3nc(-c4ccc(OC)c(OC)c4)cn23)c1	870
COc1nc2ccccc2nc1N1CCCC(C(=O)NC2CCCC2)C1 (stereo not drawn)	1000
COC1CCN(CC2CCCCCN2C(=O)c2ccoc2)CC1 (stereo not drawn)	596
O=C(NC1CC1)c1nc(C(=O)N2CCC3(CC2)OCCO3)cs1	649
Cc1ccc(NS(=O)(=O)c2cc(-c3cc(C(F)(F)F)on3)sc2C)c(C)c1	1230
Cc1nnc2n1CCC(NC(=O)Cc1cccs1)CC2 (stereo not drawn)	550
O=C(COc1ccccc1F)NCC1CCN(S(=O)(=O)C2CC2)CC1	712
O=C(Nc1onc2c1CSC2)c1cccc(-n2cnnn2)c1	647
O=C(CCc1c(-c2ccccc2)nc2ccccn12)Nc1ccc(F)cc1F	666
O=C(Nc1cncc(-c2nc3ccccc3o2)c1)c1cccc(Cl)c1	1010
Cc1cc(C)cc(-n2ccc(=O)c(-c3nc(-c4ccc5c(c4)OCO5)no3)n2)c1	996
COCCN(CCOC)C(=O)Cc1csc(NC(=O)Nc2ccc(Cl)cc2)n1	733
Cc1ccccc1Nc1c(-c2ccc(Br)cc2)nc2cnccn12	1060
CCC(=O)N1CCOc2ccc(N3CCOCC3)cc2C1	630
CCOC(=O)N1CCN(C(=O)CCC2CCN(c3cc(NC4CC4)ncn3)CC2)CC1	561
COc1cc(N)c(Cl)cc1C(=O)CCC1CCN(CCNS(C)(=O)=O)CC1	673
Cc1nc(CC(=O)Nc2cc(F)cc(F)c2)cs1	796
Cc1ccc2oc(-c3nnc(C(=O)NCc4ccc(C)o4)o3)c(C)c2c1	1100
CC1Oc2ccccc2OC1C(=O)NCc1ccsc1 (stereo not drawn)	832
Cc1ccc(Cn2cccc(C(=O)Nc3nc4c(C)cccc4s3)c2=O)cc1	1240
Cc1nc(N2CCOCC2)c2c(C(=O)Nc3ccc(C)c(C)c3)c(C)oc2n1	882
NC(=O)C1(c2ccccc2F)CC1	681
COc1ccc(-c2nnc(-c3nc(NCc4ccc(C)o4)c4ccccc4n3)o2)cc1	985
COc1ccc(N2CCN(c3nc(C)cc(C)n3)CC2)cc1	745
CCCNC(=O)N1CCCC(CCc2nnc(-c3cnccn3)o2)C1 (stereo not drawn)	647
OC[C@H]1O[C@@H](n2cnc3c(N[C@H]4CCC[C@@H]4O)ncnc32)[C@@H](O)C1O (stereo partly drawn)	590

The next lines start with the values.

RP-LC retention time [s]	Compound
1070	COc1cccc(CN2CC(=O)N(Cc3cccc(F)c3)c3ccccc3S2(=O)=O)c1
774	O=C1N(c2cccc(F)c2)C(c2ccccc2)C12CCN(Cc1cccc(F)c1O)CC2 (stereo not drawn)
839	Cc1ccccc1OCc1nc(-c2ccc3ncn(C(C)C)c3c2)no1
566	CN1CCN(c2nc(C(=O)NC3CCN(c4ccc(=O)n(C)n4)CC3)cs2)CC1
882	O=C(Nc1ccccc1)N1CCC(CCNC(=O)C2(c3ccccc3)CC2)CC1
908	O=C1c2cccc3cccc(c23)C(=O)N1CCCC(=O)N1CCc2ccccc21
726	COc1ccc(NC(=O)c2ccc(-n3cnc(NC(=O)C4CC4)c3)cc2)c(OC)c1
992	Cn1nc(-c2nnc(-c3ccccc3)o2)c2c1CCN(S(=O)(=O)c1ccc(Cl)cc1)C2
571	CCc1nnc(NC(=O)c2ccc3c(c2)c(=O)cc(C)n3CC)s1
674	Cc1ccc(-c2cc3c(=O)n(Cc4noc(CN5CCCCC5C)n4)ccn3n2)cc1 (stereo not drawn)
953	CCC1Oc2ccc(S(=O)(=O)N3CCC(C(=O)NCc4cccc(OC)c4)CC3)cc2NC1=O (stereo not drawn)
782	CSc1ccc(NC(=O)Nc2cc(C)ccn2)cc1
940	Cc1ccc(-n2nc(CO)c(C(=O)NCc3ccc4c(c3)OCO4)n2)cc1
885	CCCN1C(=O)COc2cc(-c3noc(C(=O)N4CCCC4)n3)ccc21
584	O=C(Nc1ccc(Cl)cc1F)N1CCc2nc[nH]c2C1
935	CCOc1ccc(NC(=O)c2cnc(-c3ccc(F)cc3)nc2-c2ccncc2)cc1
788	Cc1nn(CCCC(=O)N2CCOCC2)c(=O)c2c(-n3cccc3)n(-c3ccccc3)nc12
1050	CCc1cc(-c2csc(S(=O)(=O)Nc3ccc(C)c(C)c3)c2)on1
1030	O=[N+]([O-])c1cccc(-c2nc(N3CCCCCC3)c3ccccc3n2)c1
838	CCc1ccc(NC(=O)N2CCC(n3cnc4c(C)cccc4c3=O)CC2)cc1
715	COC(=O)c1ncn2c1C(=O)N(c1ccccc1C)C(C)(C(=O)NCc1ccccc1)C2 (stereo not drawn)

RP-LC retention time [s]	Compound
617	CC(=O)Nc1cccc(C2=NN(C(C)=O)C(c3ccc4nccnc4c3)C2)c1 (stereo not drawn)
893	CCC1Oc2ccc(S(=O)(=O)N3CCC(C(=O)NCc4cccc(C)c4)CC3)cc2NC1=O (stereo not drawn)
747	Nc1cc(C2CCN(C(=O)/C=C/c3ccccc3Cl)CC2)no1
836	COc1cccc(N2CCN(c3ccnc(SCC(=O)Nc4cc(F)ccc4Cl)n3)CC2)c1
745	O=C(Cc1ccsc1)Nc1cccn2c(C3CCC3)nnc12
764	Cc1nn(CC(=O)NCc2ccco2)c(=O)c2c(C)n(-c3ccccc3)nc12
646	CC1CC(=O)Nc2cc(S(=O)(=O)N3CCN(c4ccccn4)CC3)ccc2S1 (stereo not drawn)
980	Cc1cccc(-c2noc(C3CCCN3C(=O)Nc3ccccc3)n2)c1 (stereo not drawn)
604	O=C(NCc1cccnc1)C1c2ccccc2C(=O)N1Cc1ccccc1 (stereo not drawn)
802	CCC(C(=O)NC1CC1)n1nc(C)c2c(C)n(-c3ccc(C)cc3)nc2c1=O (stereo not drawn)
779	CCOC(=O)c1c(C)[nH]c(C(=O)N2CCC(CC(=O)NCc3cccc(F)c3)CC2)c1C
771	Cc1cccc(NC(=O)c2nc3ccccc3[nH]c2=O)c1
673	COc1ccccc1-c1nc2cnccn2c1NCCC(=O)NC1CCCCC1
606	O=C(CCCc1ccccc1)N1CC(n2ccnc2)C1
810	CC1(C(=O)NCc2ccccc2)CCCN(C(=O)NCc2ccccc2)C1 (stereo not drawn)
708	CC(=O)Nc1ccc2nc(NC(=O)CCOc3ccccc3)sc2c1
992	Cc1ccc(S(=O)(=O)N2C[C@@H](F)C[C@H]2C(=O)N2CCc3ccccc3C2)c(C)c1
719	Cc1ccc2c(c1)NC(=O)c1cc(NC(=O)c3ccno3)ccc1O2
924	CCc1noc(-c2ccc(-n3cnc(C(=O)N4CCc5ccccc5C4)c3)nc2)n1
636	O=C(C1CCCO1)N1CCC(OCc2nc(-c3cccnc3)no2)CC1 (stereo not drawn)
